Data: patent publication US20030206893A1, “Cell proliferating agents” (priority 2002, published 2003)
Where a name gives a salt, the structure may show the parent alone.

How the values were obtained:
[1] = system: human skin fibroblast cell line (normal human dermal fibroblasts, neonatal); test: Proliferative response of plant growth factors on human skin fibroblast cell line, 96-well assay (Cell Titer 96 Aqueous One, absorbance 490 nm); format: cell-based; details: 28 hours incubation, serum-free DMEM
Description: The proliferative response of plant growth factors on the human skin fibroblast cell line (Clonetics, Walkersville, Md., normal human dermal fibroblasts, neonatal, Catalog No. CC-2509) was determined in a 96-well assay system using serum-free medium as a control.
Stock solution of gibberellic acid (Sigma Chemical Company, St. Louis, Mo.) (0.001 M) was prepared in water and then diluted with serum-free Dulbecco's Modified Eagle's Medium (DMEM, Sigma Chemical Co., St. Louis, Mo.) to 10^−5, (“GA2”) and 10^−6 (“GA1”) M solutions. Cells were seeded into 96 well plates at a concentration of 3×10^3 cells in 100 microliters of DMEM containing 10 percent fetal bovine serum (FBS, Sigma Chemical Co., St. Louis, Mo.). Plates were incubated for 24 hours at 37° C. in a humidified, 5 percent CO2 atmosphere. After incubation, the medium was aspirated and the wells were rinsed twice with 100 microliters of serum-free DMEM. The final rinse was aspirated and 100 microliters of the 10^−5 and 10^−6 M of each solution was added to 10 wells. In addition, 100 microliters of vehicle (serum-free DMEM) was added to 10 wells as control. All wells were incubated for 28 hours at 37° C. in a humidified, 5 percent CO2 atmosphere. After incubation, 20 microliters of Cell Titer 96 Aqueous One Solution Reagent (Promega, Corp., Madison, Wis.) was added to all wells. The plates were swirled gently and placed back in the incubator for 45 minutes and spectrophotometric absorbance was read at 490 nm.
Statistical analysis was done by using one-way ANOVA.
Kinetin (Spectrum Chemical, CA) 1 mg/ml aqueous solution as supplied by the Company was used as a stock solution. Further dilutions were made with serum-free Dulbecco's Modified Eagle's Medium (DMEM, Sigma Chemical Co., St. Louis, Mo.) to 10^−5, (“K2”) and 10^−6 (“K1”) M solutions. Cells were seeded into 96 well plates at a concentration of 3×10^3 cells in 100 microliters of DMEM containing 10 percent fetal bovine serum (FBS, Sigma Chemical Co., St. Louis, Mo.). Plates were incubated for 24 hours at 37° C. in a humidified, 5 percent CO2 atmosphere. After incubation, the medium was aspirated and the wells were rinsed twice with 100 microliters of serum-free DMEM. The final rinse was aspirated and 100 microliters of the 10^−5 and 10^−6 M of each solution was added to 10 wells. In addition, 100 microliters of vehicle (serum-free DMEM) was added to 10 wells as control. All wells were incubated for 28 hours at 37° C. in a humidified, 5 percent CO2 atmosphere. After incubation, 20 microliters of Cell Titer 96 Aqueous One Solution Reagent (Promega, Corp., Madison, Wis.) was added to all wells. The plates were swirled gently and placed back in the incubator for 45 minutes and spectrophotometric absorbance was read at 490 nm. […]

human fibroblasts = details: reported by S. I. Rattan, Biochem Biophys Res. Comm., 201, 665-672, 1994; cited from earlier work
[2] = 10^-5 and 10^-6 M solutions, 3x10^3 cells seeded
[3] = 10^-4, 10^-5 and 10^-6 M solutions, 2x10^3 cells seeded

Row | Compound | effect on cell proliferation versus serum-free medium control (one-way ANOVA) [1, 2] | effect on cell proliferation versus serum-free medium control (one-way ANOVA) [1, 3] | effect on onset of aging characteristics in human fibroblasts (human fibroblasts)
1 | C=C1C[C@]23C[C@@]1(O)CC[C@H]2[C@@]12C=C[C@H](O)[C@@](C)(C(=O)O1)[C@H]2[C@@H]3C(=O)O [gibberellic acid] | good cell proliferating agent |  | 
2 | CC/C=C\C[C@H]1C(=O)CC[C@@H]1CC(=O)O [jasmonic acid] |  | strong cell proliferating agent | 
3 | c1coc(CNc2ncnc3[nH]cnc23)c1 [kinetin] | good cell proliferating agent |  | delay the onset of aging characteristics
4 | C/C(=C\CNc1ncnc2[nH]cnc12)CO [zeatin, trans-zeatin HCl] |  | good cell proliferating agent | 
